Among the data in US10570129B2 (Zoetis Services LLC, priority 2015, dated 2020) are minimal effective concentration and inhibition in vivo values, retold here.

The test system of test [1] is Haemonchus contortus L3. Description: microbe, parasite or virus in culture. The class given is cell-based. Conditions: Haemonchus contortus, 96 h, read-out: HcL3 Minimal Effective Concentration (MEC).
Test [2] concerns D. immitis microfilariae. Description: Dirofilaria immitis, microfilariae (DiMF) in vitro motility assay. The class given is cell-based. Particulars: Dirofilaria immitis, 72 h, read-out: DiMF minimally effective dose (MEC).
The subject of test [3] is Trichostrongylus colubriformis. The test is described as follows: Jird efficacy model. The format is in vivo. Particulars: Trichostrongylus colubriformis, sc, 96 h, read-out: Jird % (percentage efficacy).

Molecules are shown by their SMILES.

On to `O=C(NCc1ccnc(Cl)c1)n1c2c(c3cc4c(cc31)COC4)CN(C/C=C/c1ccc(F)cc1)CC2` [Example 481, (E)-N-((2-chloropyridin-4-yl)methyl)-8-(3-(4-fluorophenyl)allyl)-1,3,6,7,8,9-hexahydro-5H-furo[3,4-f]pyrido[4,3-b]indole-5-carboxamide], for which the minimal effective concentration in test [1] is 0.3 µM; in test [2] it was 3.3 µM. The inhibition in vivo at 10 mg/kg in test [3] came to 99%.
The corresponding values for `N#Cc1ccc2c3c(n(C(=O)NCc4ccnc(Cl)c4)c2c1)CCN(C/C=C/c1cc(F)c(F)c(F)c1)C3` [Example 29, (E)-N-((2-chloropyridin-4-yl)methyl)-7-cyano-2-(3-(3,4,5-trifluorophenyl)allyl)-1,2,3,4-tetrahydro-5H-pyrido[4,3-b]indole-5-carboxamide] are 0.7 µM, 1.8 µM and 99%.
The corresponding values for `N#Cc1ccc2c(c1)c1c(n2C(=O)NCc2ccnc(F)c2)CCN(C/C=C/c2ccc(Br)cc2F)C1` [Example 102, (E)-2-(3-(4-bromo-2-fluorophenyl)allyl)-8-cyano-N-((2-fluoropyridin-4-yl)methyl)-1,2,3,4-tetrahydro-5H-pyrido[4,3-b]indole-5-carboxamide] are 0.3 µM, 3.3 µM and 97%.
In the same order, the values of `N#Cc1ccc2c(c1)c1c(n2C(=O)NCc2ccnc(F)c2)CCN(C/C=C/c2cc(F)c(Cl)c(F)c2)C1` [Example 99, (E)-2-(3-(4-chloro-3,5-difluorophenyl)allyl)-8-cyano-N-((2-fluoropyridin-4-yl)methyl)-1,2,3,4-tetrahydro-5H-pyrido[4,3-b]indole-5-carboxamide] are 0.1 µM, 10 µM and 100%.
With `O=C(NCc1ccnc(F)c1)n1c2c(c3cc(F)c(Cl)cc31)CN(C/C=C/c1ccc(Cl)cc1)CC2` [Example 317, (E)-7-chloro-2-(3-(4-chlorophenyl)allyl)-8-fluoro-N-((2-fluoropyridin-4-yl)methyl)-1,2,3,4-tetrahydro-5H-pyrido[4,3-b]indole-5-carboxamide], the minimal effective concentration in test [1] worked out at 1 µM; in test [2], 18.2 µM. For the same compound, in test [3], the inhibition in vivo at 10 mg/kg came to 100%.
The corresponding values for `O=C(NCc1ccnc(F)c1)n1c2c(c3cc(C(F)(F)F)ccc31)CN(C/C=C/c1ccc(F)cc1F)CC2` [Example 417, (E)-2-(3-(2,4-difluorophenyl)allyl)-N-((2-fluoropyridin-4-yl)methyl)-8-(trifluoromethyl)-1,2,3,4-tetrahydro-5H-pyrido[4,3-b]indole-5-carboxamide] are 5.7 µM, 10 µM and 100%.
In the same order, the values of `N#Cc1ccc2c3c(n(C(=O)NCc4ccnc(Cl)c4)c2c1)CCN(C/C=C/c1ccc(Cl)c(Cl)c1)C3` [Example 35, (E)-N-((2-chloropyridin-4-yl)methyl)-7-cyano-2-(3-(3,4-dichlorophenyl)allyl)-1,2,3,4-tetrahydro-5H-pyrido[4,3-b]indole-5-carboxamide] are 3.3 µM, 33 µM and 100%.
The corresponding values for `N#Cc1ccc2c3c(n(C(=O)NCc4ccnc(Cl)c4)c2c1)CCN(C/C=C/c1c(F)cc(F)cc1F)C3` [Example 9, (E)-N-((2-chloropyridin-4-yl)methyl)-7-cyano-2-(3-(2,4,6-trifluorophenyl)allyl)-1,2,3,4-tetrahydro-5H-pyrido[4,3-b]indole-5-carboxamide] are 7.6 µM, 5.7 µM and 99%.
Consider `N#Cc1ccc(/C=C/CN2CCc3c(c4c(F)cc(C(F)(F)F)cc4n3C(=O)NCc3ccnc(Cl)c3)C2)cc1` [Example 321, (E)-N-((2-chloropyridin-4-yl)methyl)-2-(3-(4-cyanophenyl)allyl)-9-fluoro-7-(trifluoromethyl)-1,2,3,4-tetrahydro-5H-pyrido[4,3-b]indole-5-carboxamide], for which the minimal effective concentration came out at 2.4 µM in test [1] and 5.7 µM in test [2]. Further, the inhibition in vivo at 10 mg/kg in test [3] was 100%.
`N#Cc1ccc2c3c(n(C(=O)NCc4ccnc(Cl)c4)c2c1)CCN(C/C=C/c1ccc(F)cc1)C3` [Example 36, (E)-N-((2-chloropyridin-4-yl)methyl)-7-cyano-2-(3-(4-fluorophenyl)allyl)-1,2,3,4-tetrahydro-5H-pyrido[4,3-b]indole-5-carboxamide]: the minimal effective concentration in test [1] worked out at 5.7 µM; in test [2], 3.3 µM. In test [3], the inhibition in vivo at 10 mg/kg came out at 100%.
The corresponding values for `N#Cc1ccc2c3c(n(C(=O)NCc4ccnc(Cl)c4)c2c1)CCN(C/C=C/c1c(F)cc(Cl)cc1F)C3` [Example 6, (E)-2-(3-(4-chloro-2,6-difluorophenyl)allyl)-N-((2-chloropyridin-4-yl)methyl)-7-cyano-1,2,3,4-tetrahydro-5H-pyrido[4,3-b]indole-5-carboxamide] are 2.4 µM, 18.2 µM and 99%.
The corresponding values for `O=C(NCc1ccnc(F)c1)n1c2c(c3cc(C(F)(F)F)ccc31)CN(C/C=C/c1ccc(F)c(Cl)c1)CC2` [Example 418, (E)-2-(3-(3-chloro-4-fluorophenyl)allyl)-N-((2-fluoropyridin-4-yl)methyl)-8-(trifluoromethyl)-1,2,3,4-tetrahydro-5H-pyrido[4,3-b]indole-5-carboxamide] are 3.3 µM, 18.2 µM and 95%.
